Patent US10150757B2, “Quinazolinone derivatives as PARP inhibitors” (Janssen Pharmaceutica NV, priority 2004, dated 2018)
One block for each compound: values may come before it.

Legend:
[1] = target: PARP-1 enzyme (Homo sapiens, UniProt P09874); assay: In vitro scintillation proximity assay (SPA) for PARP-1 inhibitory activity; format: biochemical; conditions: [3H]-NAD+, biotinylated histones, nicked DNA; read-out: in vitro SPA assay PARP-1 pIC50 (converted)
Experimental: In Vitro Scintillation Proximity Assay (SPA) for PARP-1 Inhibitory Activity
Compounds of the present invention were tested in an in vitro assay based on SPA technology (proprietary to Amersham Pharmacia Biotech).
In principle, the assay relies upon the well established SPA technology for the detection of poly(ADP-ribosyl)ation of biotinylated target proteins, i.e histones. This ribosylation is induced using nicked DNA activated PARP-1 enzyme and [^3H]-nicotinamide adenine dinucleotide ([^3H]-NAD^+) as ADP-ribosyl donor.
As inducer of PARP-1 enzyme activity, nicked DNA was prepared. For this, 25 mg of DNA (supplier: Sigma) was dissolved in 25 ml DNAse buffer (10 mM Tris-HCl, pH 7.4; 0.5 mg/ml Bovine Serum Albumine (BSA); 5 mM MgCl2.6H2O and 1 mM KCl) to which 50 μl DNAse solution (1 mg/ml in 0.15M NaCl) was added. After an incubation of 90 min. at 37° C., the reaction was terminated by adding 1.45 g NaCl, followed by a further incubation at 58° C. for 15 min. The reaction mixture was cooled on ice and dialysed at 4° C. for respectively 1.5 and 2 hours against 1.5 l of 0.2M KCl, and twice against 1.5 l of 0.01M KCl for 1.5 and 2 h respectively. The mixture was aliquoted and stored at −20° C. Histones (1 mg/ml, type II-A, supplier: Sigma) were biotinylated using the biotinylation kit of Amersham and stored aliquoted at −20° C. A stock solution of 100 mg/ml SPA poly(vinyl toluene) (PVT) beads (supplier: Amersham) was made in PBS. A stock solution of [^3H]-NAD^+ was made by adding 120 μl of [^3H]-NAD^+ (0.1 mCi/ml, supplier: NEN) to 6 ml incubation buffer (50 mM Tris/HCl, pH 8; 0.2 mM DTT; 4 mM MgCl2). A solution of 4 mM NAD^+ (supplier: Roche) was made in incubation buffer (from a 100 mM stock solution in water stored at −20° C.). The PARP-1 enzyme was produced using art known techniques, i.e. cloning and expression of the protein starting from human liver cDNA. Information concerning the used protein sequence of the PARP-1 enzyme including literature references can be found in the Swiss-Prot database under primary accession number P09874. Biotinylated histones and PVT-SPA beads were mixed and pre-incubated for 30 min. at room temperature. PARP-1 enzyme (concentration was lot dependent) was mixed with the nicked DNA and the mixture was pre-incubated for 30 min. at 4° C. Equal parts of this histones/PVT-SPA beads solution and PARP-1 enzyme/DNA solution were mixed and 75 μl of this mixture together with 1 μl of compound in DMSO and 25 μl of [^3H]-NAD^+ was added per well into a 96-well microtiterplate. The final concentrations in the incubation mixture were 2 μg/ml for the biotinylated histones, 2 mg/ml for the PVT-SPA beads, 2 μg/ml for the nicked DNA and between 5-10 μg/ml for the PARP-1 enzyme. After incubation of the mixture for 15 min. at room temperature, the reaction was terminated by adding 100 μl of 4 mM NAD^+ in incubation buffer (final concentration 2 mM) and plates were mixed.
The beads were allowed to sediment for at least 15 min. and plates transferred to a TopCountNXT™ (Packard) for scintillation counting, values were expressed as counts per minute (cpm). For each experiment, controls (containing PARP-1 enzyme and DMSO without compound), a blank incubation (containing DMSO but no PARP-1 enzyme or compound) and samples (containing PARP-1 enzyme and compound dissolved in DMSO) were run in parallel. All compounds tested were dissolved and eventually further diluted in DMSO. In first instance, compounds were tested at a concentration of 10^−5M. […] In each test, the blank value was subtracted from both the control and the sample values. The control sample represented maximal PARP-1 enzyme activity. For each sample, the amount of cpm was expressed as a percentage of the mean cpm value of the controls. […] Herein the effects of test compounds are expressed as pIC50 (the negative log value of the IC50-value).

[2] = target: T1, TANK-2 enzyme (Homo sapiens, UniProt Q9H2K2); assay: In vitro scintillation proximity assay (SPA) for TANK-2 inhibitory activity; format: biochemical; conditions: auto-poly(ADP-ribosyl)ation; 96-well plate results if available, otherwise 384-well; read-out: in vitro SPA assay TANK-2 pIC50 (converted)
T1 construct: made in house
T1 sequence (Q9H2K2 1-1166): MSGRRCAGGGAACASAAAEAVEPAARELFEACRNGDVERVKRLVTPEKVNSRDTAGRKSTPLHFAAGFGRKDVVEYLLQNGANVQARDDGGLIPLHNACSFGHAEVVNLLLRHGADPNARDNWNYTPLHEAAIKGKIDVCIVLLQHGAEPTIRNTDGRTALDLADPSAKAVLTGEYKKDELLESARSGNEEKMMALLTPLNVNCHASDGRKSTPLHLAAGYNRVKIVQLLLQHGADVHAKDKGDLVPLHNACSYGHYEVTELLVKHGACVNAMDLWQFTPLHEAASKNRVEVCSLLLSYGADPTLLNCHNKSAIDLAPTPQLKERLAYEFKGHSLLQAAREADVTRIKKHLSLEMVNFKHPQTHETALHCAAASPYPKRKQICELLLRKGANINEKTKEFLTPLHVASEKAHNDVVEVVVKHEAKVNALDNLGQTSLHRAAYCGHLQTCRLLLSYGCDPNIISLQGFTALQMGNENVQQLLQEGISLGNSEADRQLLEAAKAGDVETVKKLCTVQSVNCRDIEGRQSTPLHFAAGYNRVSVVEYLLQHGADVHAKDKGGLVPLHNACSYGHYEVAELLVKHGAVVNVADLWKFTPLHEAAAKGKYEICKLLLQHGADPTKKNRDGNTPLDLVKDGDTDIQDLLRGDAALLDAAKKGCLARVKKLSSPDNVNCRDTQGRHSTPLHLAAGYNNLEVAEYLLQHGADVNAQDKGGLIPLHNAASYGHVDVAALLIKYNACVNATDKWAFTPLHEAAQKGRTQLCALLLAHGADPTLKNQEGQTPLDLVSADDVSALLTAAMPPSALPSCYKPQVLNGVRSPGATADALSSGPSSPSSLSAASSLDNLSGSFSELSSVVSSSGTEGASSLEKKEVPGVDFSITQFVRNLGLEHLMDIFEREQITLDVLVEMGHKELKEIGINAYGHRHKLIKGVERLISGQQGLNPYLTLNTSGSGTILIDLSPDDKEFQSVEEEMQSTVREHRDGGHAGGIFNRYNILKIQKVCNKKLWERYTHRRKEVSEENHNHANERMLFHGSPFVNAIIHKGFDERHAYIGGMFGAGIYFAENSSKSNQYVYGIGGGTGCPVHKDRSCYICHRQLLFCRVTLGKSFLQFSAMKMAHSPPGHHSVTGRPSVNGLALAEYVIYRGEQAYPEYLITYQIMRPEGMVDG
Experimental: In Vitro Scintillation Proximity Assay (SPA) for TANK-2 Inhibitory Activity
Compounds of the present invention were tested in an in vitro assay based on SPA technology with Ni Flash plates (96 or 384 well).
In principle, the assay relies upon SPA technology for the detection of auto-poly(ADP-ribosyl)ation of TANK-2 protein using [^3H]-nicotinamide adenine dinucleotide ([^3H]-NAD^+) as ADP-ribosyl donor.
A stock solution of [^3H]-NAD^+/NAD was made by adding 64.6 μl of [^3H]-NAD^+ (0.1 mCi/ml, supplier: Perkin Elmer) and 46.7 μl NAD-stock (10.7 mM, stored at −20° C., supplier Roche) to 1888.7 μl assay buffer (60 mM Tris/HCl, pH 7.4; 0.9 mM DTT; 6 mM MgCl2). The TANK-2 enzyme was produced as described in EP1238063. 60 μl of assay buffer, together with 1 μl of compound in DMSO, 20 μl of [^3H]-NAD^+/NAD and 20 μl of TANK-2 enzyme (final concentration 6 μg/ml) was added per well into a 96-well Ni-coated flash plate (Perkin Elmer). After incubation of the mixture for 120 min. at room temperature, the reaction was terminated by adding 60 μl of stop solution (42.6 mg NAD in 6 ml H2O). The plates were covered with a plate sealer and placed in a TopCountNXT™ (Packard) for scintillation counting. Values were expressed as counts per minute (cpm). For each experiment, controls (containing TANK-2 enzyme and DMSO without compound), a blank incubation (containing DMSO but no TANK-2 enzyme or compound) and samples (containing TANK-2 enzyme and compound dissolved in DMSO) were run in parallel. All compounds tested were dissolved and eventually further diluted in DMSO. In first instance, compounds were tested at a concentration of 10^−5M. […] In each test, the blank value was subtracted from both the control and the sample values. The control sample represented maximal TANK-2 enzyme activity. For each sample, the amount of cpm was expressed as a percentage of the mean cpm value of the controls. When appropriate, IC50-values (concentration of the drug, needed to reduce the TANK-2 enzyme activity to 50% of the control) were computed using linear interpolation between the experimental points just above and below the 50% level. Herein the effects of test compounds are expressed as pIC50 (the negative log value of the IC50-value). As reference compounds, 3-aminobenzamide and 4-amino-1,8-naphthalimide were included to validate the SPA assay. Herein the assay was described using 96-well plates. In the assay using 384-well plates the same final concentrations were used and volumes were adapted.

[3] = tested on: ischemia and reperfusion of the heart; conditions: rabbits, cited from earlier work
[4] = tested on: colitis; conditions: rats, colitis by intraluminal trinitrobenzene sulfonic acid in 50% ethanol; cited from earlier work

Chain of PARP-1 enzyme (P09874 whole entry): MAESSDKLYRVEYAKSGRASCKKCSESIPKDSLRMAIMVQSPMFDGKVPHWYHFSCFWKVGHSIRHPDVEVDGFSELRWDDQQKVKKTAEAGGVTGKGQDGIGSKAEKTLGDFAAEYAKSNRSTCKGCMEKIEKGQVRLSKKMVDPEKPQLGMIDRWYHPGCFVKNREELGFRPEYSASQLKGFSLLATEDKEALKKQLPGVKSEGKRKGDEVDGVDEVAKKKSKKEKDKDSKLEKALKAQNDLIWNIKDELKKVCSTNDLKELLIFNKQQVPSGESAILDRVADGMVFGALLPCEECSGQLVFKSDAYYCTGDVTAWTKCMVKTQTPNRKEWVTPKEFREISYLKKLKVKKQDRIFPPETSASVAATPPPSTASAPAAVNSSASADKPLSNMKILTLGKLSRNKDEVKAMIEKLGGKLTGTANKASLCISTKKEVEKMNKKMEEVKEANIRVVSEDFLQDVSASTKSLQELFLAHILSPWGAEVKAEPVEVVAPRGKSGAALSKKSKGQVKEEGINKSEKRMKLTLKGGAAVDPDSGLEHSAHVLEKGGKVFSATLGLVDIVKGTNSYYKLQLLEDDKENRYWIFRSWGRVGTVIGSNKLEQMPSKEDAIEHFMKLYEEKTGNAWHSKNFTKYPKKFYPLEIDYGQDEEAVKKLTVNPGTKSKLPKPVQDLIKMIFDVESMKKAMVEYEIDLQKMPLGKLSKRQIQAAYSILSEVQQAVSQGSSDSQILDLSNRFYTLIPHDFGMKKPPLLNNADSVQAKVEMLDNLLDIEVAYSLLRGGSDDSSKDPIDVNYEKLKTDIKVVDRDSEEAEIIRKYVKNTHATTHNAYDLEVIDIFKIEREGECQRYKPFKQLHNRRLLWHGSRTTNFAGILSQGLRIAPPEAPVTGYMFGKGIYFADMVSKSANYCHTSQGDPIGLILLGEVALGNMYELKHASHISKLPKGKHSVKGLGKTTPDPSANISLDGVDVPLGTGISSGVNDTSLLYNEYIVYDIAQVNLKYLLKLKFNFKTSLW

IC50 [2]: > 10 µM
SMILES: CO[C@H]1CN(CCNc2nc(O)c3ccccc3n2)CC[C@H]1NC(=O)c1cc(Cl)cc2c1OC(C)(C)C2 [Compound 13]

IC50 [2]: > 10 µM
SMILES: CC1(C)Cc2cc(Cl)cc(C(=O)NC3CCN(CCNc4nc(O)c5ccccc5n4)CC3)c2O1 [Compound 12]

IC50 [2]: > 10 µM
SMILES: CO[C@@H]1CN(CCCNc2nc(O)c3cc(Cl)ccc3n2)CC[C@@H]1NC(=O)c1cc(Cl)c(N)c2c1OC(C)(C)C2 [Compound 16]

IC50 [2]: > 10 µM
SMILES: CO[C@@H]1CN(CCCNc2nc(O)c3ccc(Cl)cc3n2)CC[C@@H]1NC(=O)c1cc(Cl)c(N)c2c1OC(C)(C)C2 [Compound 17]

IC50 [2]: > 10 µM
SMILES: CC1(C)Cc2cc(Cl)cc(C(=O)NC3CCN(CCCNc4nc(O)c5ccccc5n4)CC3)c2O1 [Compound 11]

melting point: 118 °C
SMILES: CCc1cc2cc(CN3CCN(CCNc4nc5ccccc5c(=O)[nH]4)CC3)ccc2nc1OC (hydrate or solvate) [Compound 3]

Second part, the compound before the results:

SMILES: O=c1[nH]c(NCCN2CCN(c3n[nH]c(=O)c4ccccc34)CC2)nc2ccccc12 [Compound 35]
IC50 [1]: 0.0107 µM

SMILES: O=c1[nH]c(NCCN2CCN(c3n[nH]c4ccccc34)CC2)nc2ccccc12 [Compound 19]
IC50 [2]: > 10 µM

SMILES: Oc1cccc2c(O)nccc12 [1,5-dihydroxyisoquinoline]
reduced infarct size ([3]; single injection 1 mg/kg): 38-48%

SMILES: NC(=O)c1cccc(N)c1 [3-amino-benzamide]
reductions in infarct size in the heart ([3]; single injection 10 mg/kg, one minute before occlusion or one minute before reperfusion): 32-42%
inflammatory response, morphology and energetic status of the distal colon [4]: reduced the inflammatory response and restored the morphology and the energetic status of the distal colon

SMILES: Cc1cccc2nc(NCCN3CCC(c4n[nH]c5cc(F)ccc45)CC3)[nH]c(=O)c12 [Compound 34]
IC50 [1]: 0.0217 µM

SMILES: COc1cc2nc(NCCN3CCN(c4n[nH]c5ccccc45)CC3)[nH]c(=O)c2cc1OC [Compound 32]
IC50 [1]: 0.0452 µM
